Source: US20080051387A1, “TETRAHYDROPYRIDO[3,4-D]PYRIMIDINES AND RELATED ANALOGUES” (priority 2006, published 2008)

Target: T1, chimeric human H3 receptor (Homo sapiens, UniProt Q9Y5N1)
T1 construct: rat Galpha-i2 (Gnai2, rat); made in house; host or cells: Sf9 insect cells (baculovirus); P2 membranes
Experiment: Chimeric human H3 receptor screening GTP binding assay (inhibition of histamine-stimulated GTP-gamma35S binding, Example 8)
Format: biochemical
Details: 1 h; assay described in Example 8; symbol "!" in column headed Ki; read-out: Ki ("!": percent inhibition of agonist-induced GTP-gammaS binding to H3)
Procedure, shortened: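 Compound tested at 4 μM against 1 μM histamine stimulation; 125 pM GTP-gamma35S binding measured by filtration and scintillation after 60 min at room temperature. Membranes from Sf9 cells expressing chimeric human H3 plus G-protein subunits, in Tris pH 7.4/NaCl/MgCl2/GDP buffer; values are % inhibition after nonspecific subtraction.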

T1 sequence (Q9Y5N1 with tags, fused parts or gaps): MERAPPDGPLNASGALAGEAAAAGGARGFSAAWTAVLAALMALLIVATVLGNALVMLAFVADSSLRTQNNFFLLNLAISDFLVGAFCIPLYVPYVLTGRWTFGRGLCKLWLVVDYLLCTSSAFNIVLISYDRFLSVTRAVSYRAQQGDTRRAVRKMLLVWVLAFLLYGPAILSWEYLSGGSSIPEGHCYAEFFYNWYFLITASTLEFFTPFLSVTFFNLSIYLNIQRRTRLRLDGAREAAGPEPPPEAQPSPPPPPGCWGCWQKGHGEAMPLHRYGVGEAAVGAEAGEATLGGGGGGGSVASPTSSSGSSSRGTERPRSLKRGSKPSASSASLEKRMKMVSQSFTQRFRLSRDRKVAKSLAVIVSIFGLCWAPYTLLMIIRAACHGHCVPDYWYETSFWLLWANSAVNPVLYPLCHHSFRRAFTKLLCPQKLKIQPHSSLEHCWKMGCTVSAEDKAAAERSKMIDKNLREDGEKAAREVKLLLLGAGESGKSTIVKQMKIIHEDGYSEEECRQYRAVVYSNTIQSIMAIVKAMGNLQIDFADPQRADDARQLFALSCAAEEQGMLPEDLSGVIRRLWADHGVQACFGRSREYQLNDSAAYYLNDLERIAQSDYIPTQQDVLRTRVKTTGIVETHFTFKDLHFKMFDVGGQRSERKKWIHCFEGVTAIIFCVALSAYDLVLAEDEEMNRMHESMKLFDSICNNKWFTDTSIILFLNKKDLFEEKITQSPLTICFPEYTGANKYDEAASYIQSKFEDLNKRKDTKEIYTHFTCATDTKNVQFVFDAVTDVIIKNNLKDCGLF

Inhibition at 4 µM, ≥ 90%:
O=C(c1ccc(Cl)nc1)N1CCc2cnc(N3CCN(C4CCC4)CC3)nc2CC1 [Compound 478, 7-[(6-chloropyridin-3-yl)carbonyl]-2-(4-cyclobutylpiperazin-1-yl)-6,7,8,9-tetrahydro-5H-pyrimido[4,5-d]azepine]
CSc1ncc(Cl)c(C(=O)N2CCc3cnc(N4CCN(C5CCC5)CC4)nc3CC2)n1 [Compound 479, 7-{[5-chloro-2-(methylthio)pyrimidin-4-yl]carbonyl}-2-(4-cyclobutylpiperazin-1-yl)-6,7,8,9-tetrahydro-5H-pyrimido[4,5-d]azepine]
O=C(c1ccc(-n2cccc2)nc1)N1CCc2cnc(N3CCN(C4CCC4)CC3)nc2CC1 [Compound 480, 2-(4-cyclobutylpiperazin-1-yl)-7-{[6-(1H-pyrrol-1-yl)pyridin-3-yl]carbonyl}-6,7,8,9-tetrahydro-5H-pyrimido[4,5-d]azepine]
O=C(c1cncc(Br)c1)N1CCc2cnc(N3CCN(C4CCC4)CC3)nc2CC1 [Compound 481, 7-[(5-bromopyridin-3-yl)carbonyl]-2-(4-cyclobutylpiperazin-1-yl)-6,7,8,9-tetrahydro-5H-pyrimido[4,5-d]azepine]
O=C(c1cnc2ccccc2c1)N1CCc2cnc(N3CCN(C4CCC4)CC3)nc2CC1 [Compound 482, 2-(4-cyclobutylpiperazin-1-yl)-7-(quinolin-3-ylcarbonyl)-6,7,8,9-tetrahydro-5H-pyrimido[4,5-d]azepine]
O=C(c1ccnc(Cl)c1)N1CCc2cnc(N3CCN(C4CCC4)CC3)nc2CC1 [Compound 483, 7-(2-chloroisonicotinoyl)-2-(4-cyclobutylpiperazin-1-yl)-6,7,8,9-tetrahydro-5H-pyrimido[4,5-d]azepine]
Cc1cc(C(=O)N2CCc3cnc(N4CCN(C5CCC5)CC4)nc3CC2)cc(Cl)n1 [Compound 484, 7-(2-chloro-6-methylisonicotinoyl)-2-(4-cyclobutylpiperazin-1-yl)-6,7,8,9-tetrahydro-5H-pyrimido[4,5-d]azepine]
COc1cc(C(=O)N2CCc3cnc(N4CCN(C5CCC5)CC4)nc3CC2)cc(Cl)n1 [Compound 485, 7-(2-chloro-6-methoxyisonicotinoyl)-2-(4-cyclobutylpiperazin-1-yl)-6,7,8,9-tetrahydro-5H-pyrimido[4,5-d]azepine]
Cc1cnc(C(=O)N2CCc3cnc(N4CCN(C5CCC5)CC4)nc3CC2)cn1 [Compound 486, 2-(4-cyclobutylpiperazin-1-yl)-7-[(5-methylpyrazin-2-yl)carbonyl]-6,7,8,9-tetrahydro-5H-pyrimido[4,5-d]azepine]
O=C(c1ccncc1)N1CCc2cnc(N3CCN(C4CCC4)CC3)nc2CC1 [Compound 487, 2-(4-cyclobutylpiperazin-1-yl)-7-isonicotinoyl-6,7,8,9-tetrahydro-5H-pyrimido[4,5-d]azepine]
O=C(c1cc(-c2ccccc2)nc2ccccc12)N1CCc2cnc(N3CCN(C4CCC4)CC3)nc2CC1 [Compound 488, 2-(4-cyclobutylpiperazin-1-yl)-7-[(2-phenylquinolin-4-yl)carbonyl]-6,7,8,9-tetrahydro-5H-pyrimido[4,5-d]azepine]
CCCCc1ccc(C(=O)N2CCc3cnc(N4CCN(C5CCC5)CC4)nc3CC2)nc1 [Compound 489, 7-[(5-butylpyridin-2-yl)carbonyl]-2-(4-cyclobutylpiperazin-1-yl)-6,7,8,9-tetrahydro-5H-pyrimido[4,5-d]azepine]
COc1cc(C(=O)N2CCc3cnc(N4CCN(C5CCC5)CC4)nc3CC2)nc2ccccc12 [Compound 490, 2-(4-cyclobutylpiperazin-1-yl)-7-[(4-methoxyquinolin-2-yl)carbonyl]-6,7,8,9-tetrahydro-5H-pyrimido[4,5-d]azepine]
O=C(c1cc(Cl)nc(Cl)c1)N1CCc2cnc(N3CCN(C4CCC4)CC3)nc2CC1 [Compound 491, 2-(4-cyclobutylpiperazin-1-yl)-7-(2,6-dichloroisonicotinoyl)-6,7,8,9-tetrahydro-5H-pyrimido[4,5-d]azepine]
O=C(c1ccnc2ccccc12)N1CCc2cnc(N3CCN(C4CCC4)CC3)nc2CC1 [Compound 492, 2-(4-cyclobutylpiperazin-1-yl)-7-(quinolin-4-ylcarbonyl)-6,7,8,9-tetrahydro-5H-pyrimido[4,5-d]azepine]
O=C(c1cccnc1Sc1ccc(Cl)cc1)N1CCc2cnc(N3CCN(C4CCC4)CC3)nc2CC1 [Compound 493, 7-({2-[(4-chlorophenyl)thio]pyridin-3-yl}carbonyl)-2-(4-cyclobutylpiperazin-1-yl)-6,7,8,9-tetrahydro-5H-pyrimido[4,5-d]azepine]
CC(C)(C)c1ccc(Oc2ncccc2C(=O)N2CCc3cnc(N4CCN(C5CCC5)CC4)nc3CC2)cc1 [Compound 494, 7-{[2-(4-tert-butylphenoxy)pyridin-3-yl]carbonyl}-2-(4-cyclobutylpiperazin-1-yl)-6,7,8,9-tetrahydro-5H-pyrimido[4,5-d]azepine]
O=C(c1cccnc1Oc1ccccc1)N1CCc2cnc(N3CCN(C4CCC4)CC3)nc2CC1 [Compound 495, 2-(4-cyclobutylpiperazin-1-yl)-7-[(2-phenoxypyridin-3-yl)carbonyl]-6,7,8,9-tetrahydro-5H-pyrimido[4,5-d]azepine]
O=C(c1cccnc1Sc1ccccc1)N1CCc2cnc(N3CCN(C4CCC4)CC3)nc2CC1 [Compound 496, 2-(4-cyclobutylpiperazin-1-yl)-7-{[2-(phenylthio)pyridin-3-yl]carbonyl}-6,7,8,9-tetrahydro-5H-pyrimido[4,5-d]azepine]
O=C(c1cccnc1Oc1ccc(Cl)cc1)N1CCc2cnc(N3CCN(C4CCC4)CC3)nc2CC1 [Compound 497]
COc1ncccc1C(=O)N1CCc2cnc(N3CCN(C4CCC4)CC3)nc2CC1 [Compound 498, 2-(4-cyclobutylpiperazin-1-yl)-7-[(2-methoxypyridin-3-yl)carbonyl]-6,7,8,9-tetrahydro-5H-pyrimido[4,5-d]azepine]
C=CCSc1ncccc1C(=O)N1CCc2cnc(N3CCN(C4CCC4)CC3)nc2CC1 [Compound 499, 7-{[2-(allythio)pyridin-3-yl]carbonyl}-2-(4-cyclobutylpiperazin-1-yl)-6,7,8,9-tetrahydro-5H-pyrimido[4,5-d]azepine]
COc1ccc(OC)c(Sc2ncccc2C(=O)N2CCc3cnc(N4CCN(C5CCC5)CC4)nc3CC2)c1 [Compound 500, 2-(4-cyclobutylpiperazin-1-yl)-7-({2-[(2,5-dimethoxyphenyl)thio]pyridin-3-yl}carbonyl)-6,7,8,9-tetrahydro-5H-pyrimido[4,5-d]azepine]
CSc1ncccc1C(=O)N1CCc2cnc(N3CCN(C4CCC4)CC3)nc2CC1 [Compound 501, 2-(4-cyclobutylpiperazin-1-yl)-7-{[2-(methylthio)pyridin-3-yl]carbonyl}-6,7,8,9-tetrahydro-5H-pyrimido[4,5-d]azepine]
CCSc1ncccc1C(=O)N1CCc2cnc(N3CCN(C4CCC4)CC3)nc2CC1 [Compound 502, 2-(4-cyclobutylpiperazin-1-yl)-7-{[2-(ethylthio)pyridin-3-yl]carbonyl}-6,7,8,9-tetrahydro-5H-pyrimido[4,5-d]azepine]
Cc1ccc(Oc2ncccc2C(=O)N2CCc3cnc(N4CCN(C5CCC5)CC4)nc3CC2)c(C)c1 [Compound 503, 2-(4-cyclobutylpiperazin-1-yl)-7-{[2-(2,4-dimethylphenoxy)pyridin-3-yl]carbonyl}-6,7,8,9-tetrahydro-5H-pyrimido[4,5-d]azepine]
Cc1c(C(=O)N2CCc3cnc(N4CCN(C5CCC5)CC4)nc3CC2)cnn1-c1ccccc1 [Compound 504, 2-(4-cyclobutylpiperazin-1-yl)-7-[(5-methyl-1-phenyl-1H-pyrazol-4-yl)carbonyl]-6,7,8,9-tetrahydro-5H-pyrimido[4,5-d]azepine]
Cc1cc(C(=O)N2CCc3cnc(N4CCN(C5CCC5)CC4)nc3CC2)n(C(C)(C)C)n1 [Compound 505, 7-[(1-tert-butyl-3-methyl-1H-pyrazol-5-yl)carbonyl]-2-(4-cyclobutylpiperazin-1-yl)-6,7,8,9-tetrahydro-5H-pyrimido[4,5-d]azepine]
Cn1nc(C(C)(C)C)cc1C(=O)N1CCc2cnc(N3CCN(C4CCC4)CC3)nc2CC1 [Compound 506, 7-[(3-tert-butyl-1-methyl-1H-pyrazol-5-yl)carbonyl]-2-(4-cyclobutylpiperazin-1-yl)-6,7,8,9-tetrahydro-5H-pyrimido[4,5-d]azepine]
O=C(c1cnn(-c2ccc(Cl)cc2)c1C(F)(F)F)N1CCc2cnc(N3CCN(C4CCC4)CC3)nc2CC1 [Compound 507, 7-{[1-(4-chlorophenyl)-5-(trifluoromethyl)-1H-pyrazol-4-yl]carbonyl}-2-(4-cyclobutylpiperazin-1-yl)-6,7,8,9-tetrahydro-5H-pyrimido[4,5-d]azepine]
